In experiment [1] the test system is isolated guinea-pig ileum. The experiment can be described thus: Peristaltic reflex in the isolated guinea-pig ileum. Type of experiment: cell-based. As to conditions: Cavia porcellus, 0.25 h, 15 min contact, read-out: pEC50 value, stimulatory effect on the peristaltic activity (converted). How it is done: Furthermore, the stimulatory effect on gastrointestinal motility of compounds of the invention is also indicated e.g. by their effects on the peristaltic reflex in the isolated guinea-pig ileum.
Male guinea-pigs, 200-400 g are stunned and bled. Segments of terminal ileum, 4-5 cm long, are removed and suspended as described by Trendelenburg in Arch. Exp. Path. Pharmakol., 81, 55-129 (1917), in a 20 ml organ bath under an initial load of 1 g. The tissue is bathed with a modified Krebs solution (NaCl 118.6; CaCl2 2.7; KCl 4.7; KH2 PO4 1.2; MgSO4 0.1; NaHCO3 25.0; and glucose 5.6 mM), maintained at 37° C. and bubbled with 5% CO2 in oxygen. Peristalsis is elicited for 30 s by increasing the intraluminal pressure from zero by 1 to 4 cm H2 O. Measurements are made of longitudinal muscle responses by using an isotonic force-displacement transducer and of circular muscle activity by employing a pressure transducer. The area under the curve (AUG) of peristaltic contractions is determined and concentration response curves are established by plotting the AUC representing the circular and longitudinal muscle activity. Each preparation is used as its own control, taking the peristaltic activity before the administration of the compounds to be tested as 100%. Compounds to be tested are added to the serosal side and are left in contact with the tissue for 15 min. In this test compounds of the invention have a stimulatory effect on the peristaltic activity at concentrations of the order of from about 10^-10 M to 10^-7 M.

The test system of experiment [2] is small intestine of Beagle dogs. The experiment can be described thus: Myoelectric activity of the small intestine in Beagle dogs (implanted electrodes). It is filed as in vivo. Conditions: Canis lupus familiaris, sc, read-out: threshold dose for stimulating myoelectric activity. How it is done:
Monopolar electrodes are implanted on the serosal side of the gut wall along the small intestine of Beagle dogs. From these electrodes, signals are fed into a preamplifier and filtered for the registration of low and high frequency potentials, in order to separate slow waves from spikes. The number of spike bursts occuring in 2 min. periods are determined. From this the following data are extracted: duration of phase I--III, interval between 2 consecutive phase III blocks, and propagation velocity. One or two cycles are recorded prior to drug administration which is done subcutaneously 10-15 min after a Phase III has passed the most distal electrodes. Control experiments are performed routinely by means of solvent administration. In fed dogs, the number of spikes per 30 min. is determined additionally. In this test the compounds of the invention stimulate myoelectric activity at dosages of the order of from about 0.001 to 10 mg/kg s.c.

For another experiment, the target named is 5HT-1D receptors. Nature of the experiment: Binding affinity to 5HT-1D receptors (Waeber et al.). Conditions: 5HT-1D receptor binding. From the text:
Compounds of the invention also have an agonist effect on 5HT-1D receptors. Their binding affinity to 5HT-1D receptors has been determined e.g. according to the method disclosed by C. Waeber et al., Naunyn-Schmiedeberg,s Arch. Pharmacol., 337, 595-601 (1988).

In the next experiment the test system is 5-HT1D receptor. Nature of the experiment: Contraction of pig anterior cerebral artery segments (5-HT1D mediated). It is filed as cell-based. As to conditions: vascular contraction, ketanserin 10^-7 M present. How it is done:
Anterior cerebral arteries are excised from pig brains obtained from the local slaughterhouse. Circular segments of 3-4 mm length are mounted between two L-shaped metal prongs and placed in temperature-controlled (37° C.) organ baths filled with Krebs solution that is continuously gassed with 5% CO2 in oxygen. Agonist-induced vascular contractions are measured isometrically. In order to measure only 5-HT1D receptor mediated effects, ketanserin (10^-7 M), which prevents contractions via 5-HT2 receptors, is added to the bath solution. Compounds of the invention induce vascular contractions at a concentration of from 10^-10 to 10^-5 M, particularly 10^-9 to 10^-7 M. In this test, it has been determined that compound of Example 63 has a pD2 value of 9.0.

The target of the next experiment is T1, 5-HT4 receptors (Cavia porcellus, UniProt O70528).
T1 construct: The isolated longitudinal muscle of the guinea pig ileum with its adhering myenteric plexus; from tissue; host or cells: guinea pig ileum longitudinal muscle strip with adhering myenteric plexus
Nature of the experiment: Antagonism of 5-HT-induced contraction, longitudinal muscle strip of guinea pig ileum (5-HT4). It is filed as cell-based. Conditions: methysergide 0.1 μM present, read-out: pA2 value (converted). The text has this: The isolated longitudinal muscle of the guinea pig ileum with its adhering myenteric plexus is a well established model which permits investigations of the mechanism of action of various neurotransmitters.
Male guinea pigs (200-400 g) are killed by a blow on the head and exsanguinated. A length of small intestine is removed about 2 cm from the ileo-caecal valve. The ileum is stretched over a glass rod and the mesentery is carefully removed. By strocking tangentially away from the mesenteric attachment with a wad of cotton wool, the longitudinal muscle layer is separated and stripped from the underlying circular muscle. Longitudinal muscle strips, 3-4cm length, are mounted in a 10 ml organ bath containing Tyrode solution at 37° C. and bubbled with a 5% carbon dioxide in oxygen. The Tyrode solution is of the following composition (mmol/1): NaCl 137.0; CaCl2 1.8; KCl 2.7; MgCl2 1.05; NaHCO3 11.9; NaHPO4 0.4; glucose 5.6; and methysergide 0.1 μM. The strips are maintained under a resting tension of 500 mg. Contractions are recorded with an isotonic pendulum lever. After equilibration for 30 min a set concentration of carbachol is applied in 10 min intervals until a consistent reaction is achieved.
Non-cumulative concentration-response curves for 5-HT are established by adding increasing concentrations of the agonist to the organ bath at intervals of at least 15 min. […] Each concentration is left in contact with the tissue for 1 min. Each strip is only used to record two concentration-response curves; the first for 5-HT alone and the second for 5-HT in the presence of a set concentration of antagonist, each strip thus serving as its own control. Antagonists are allowed to preequilibrate for at least 10 min prior to addition of 5-HT. The contractions expressed as percentage of the maximal response to 5-HT obtained from several preparations are plotted as mean values in order to obtain log-concentration-response curves. Inhibition constants are expressed in the form of pA2 values which are graphically determined according to conventional methods (Arunlakshana et al, 1959, McKay 1978). […]

Some results are limits rather than exact numbers.

T1 sequence (O70528 whole entry): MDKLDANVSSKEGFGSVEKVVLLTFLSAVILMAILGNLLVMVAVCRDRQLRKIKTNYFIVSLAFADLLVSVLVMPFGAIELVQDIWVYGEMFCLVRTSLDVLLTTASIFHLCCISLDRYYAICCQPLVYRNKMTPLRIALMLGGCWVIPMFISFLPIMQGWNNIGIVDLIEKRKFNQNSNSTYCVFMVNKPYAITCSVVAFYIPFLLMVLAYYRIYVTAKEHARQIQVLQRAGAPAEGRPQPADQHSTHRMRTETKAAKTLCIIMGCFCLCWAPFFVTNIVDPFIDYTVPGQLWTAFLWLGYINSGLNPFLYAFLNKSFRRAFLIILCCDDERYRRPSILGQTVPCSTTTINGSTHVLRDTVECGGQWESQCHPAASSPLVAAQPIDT

As for `COc1cc(N)c(Cl)cc1C(=O)NC1CCN(CCCOc2ccc(F)cc2)CC1OC` (stereo not shown) [Cisapride, reference compound], the EC50 in experiment [1] is above 100 nM. In experiment [2], the minimal effective dose is 0.3 mg/kg.

With `CCCCCNC(=N)NN=Cc1c[nH]c2ccc(OC)cc12` [Example 13], the EC50 in experiment [1] was 1 nM. Moreover, in experiment [2], the minimal effective dose came to 0.03 mg/kg.

For `CCCCCNC(=N)NN=Cc1c[nH]c2ccc(C(N)=O)cc12` [Example 63], the pKD value at 5HT-1D receptors is recorded as 8.55. In the experiment on 5-HT1D receptor, this compound displayed a pD2 value of 9.0.

Turning to `CCCCCNC(=N)NN=Cc1c[nH]c2c(C)cc(O)cc12` [Example 89], the Kb at 5-HT4 receptors was 7.94 nM.

With `CCCCCNC(=N)NN=Cc1cn(CC)c2ccc(O)cc12` [Example 90], the Kb on 5-HT4 receptors is 10 nM.

For the compound `CCCCCN(C)C(=N)NN=Cc1c[nH]c2c(C)cc(O)cc12` [Example 97], at 5-HT4 receptors, the Kb is 5.01 nM.

With `CCN(CC)CCNC(=O)c1cc(Cl)c(N)cc1OC` [metoclopramide], the EC50 in experiment [1] was 2000 nM.

These data come from US5510353A, “Certain aminoguanidine compounds, pharmaceutical compositions containing them and their use in treating gastrointestinal motility disorders and disorders associated with cephalic pain” (Sandoz Ltd., priority 1991, dated 1996).
